Measured values as given in ChEMBL document CHEMBL1955803, “Preclinical in vivo evaluation of efficacy, pharmacokinetics, and pharmacodynamics of a novel MEK1/2 kinase inhibitor RO5068760 in multiple tumor models” (Mol Cancer Ther, 2010).
The source made the active and inactive calls. No cut-off for these calls is given here.

How the values were obtained:
[1] = system: Mus musculus; assay: Inhibition of MEK-mediated ERK phosphorylation in tumor of human LOX cells expressing B-Raf V600E mutant xenografted nude mouse at 100 mg/kg, po after 1 hr by Western blot analysis relative to control; assay type: functional
[2] = Drug level in human HT-29 cells expressing B-Raf V600E mutant xenografted nude mouse tumor at 100 mg/kg, po after 12 hrs; assay type: ADME, organism-based, Neoplasm; parameters: dose 100 mg/kg, route oral; conditions: read-out: Drug uptake
[3] = AUC (0 to 12 hrs) in human MIAPaCa2 cells expressing K-Ras G12C mutant xenografted nude mouse at 50 mg/kg, po bid; assay type: ADME, organism-based, MIA PaCa-2; parameters: time < 12 hr, dose 50 mg/kg, route oral; conditions: in vivo
[4] = Cmax in human H460 cells expressing K-Ras Q61H mutant xenografted nude mouse at 200 mg/kg, po qd; assay type: ADME, organism-based; parameters: dose 200 mg/kg, route oral; conditions: in vivo
[5] = system: Mus musculus; assay: Average drug concentration in human H460 cells expressing K-Ras Q61H mutant xenografted nude mouse plasma at 200 mg/kg, po qd; assay type: ADME, organism-based; parameters: dose 200 mg/kg, route oral; conditions: in vivo
[6] = AUC (0 to 24 hrs) in human H460 cells expressing K-Ras Q61H mutant xenografted nude mouse at 200 mg/kg, po qd; assay type: ADME, organism-based; parameters: time < 24 hr, dose 200 mg/kg, route oral; conditions: in vivo
[7] = system: HT-29; assay: Cell cycle arrest in human HT-29 cells assessed as accumulation at G1 phase; assay type: functional, cell-based
[8] = Cmax in human H460 cells expressing K-Ras Q61H mutant xenografted nude mouse at 25 mg/kg, po bid; assay type: ADME, organism-based; parameters: dose 25 mg/kg, route oral; conditions: in vivo
[9] = system: Mus musculus; assay: Inhibition of MEK-mediated ERK phosphorylation in po dosed human HT-29 cells expressing B-Raf V600E mutant xenografted nude mouse plasma by Western blot analysis; assay type: functional, organism-based; conditions: HT-29, Plasma
[10] = system: MIA PaCa-2; assay: Antitumor activity against human MIAPaCa2 cells expressing K-Ras G12C mutant xenografted in nude mouse assessed as tumor growth inhibition at 100 mg/kg, po bid; assay type: functional; conditions: read-out: GI
[11] = system: Mus musculus; assay: Toxicity in human HT-29 cells expressing B-Raf V600E mutant xenografted nude mouse assessed as gross signs of adverse effect at 500 mg/kg, po administered weekly once for 3 weeks; assay type: organism-based; parameters: dose 500 mg/kg, route oral; conditions: in vivo, 504 h
[12] = system: Mus musculus; assay: Average drug concentration in human HT-29 cells expressing B-Raf V600E mutant xenografted nude mouse plasma at 25 mg/kg, po bid; assay type: ADME, organism-based; parameters: dose 25 mg/kg, route oral; conditions: in vivo
[13] = system: Mus musculus; assay: Average drug concentration in human H460 cells expressing K-Ras Q61H mutant xenografted nude mouse plasma at 100 mg/kg, po bid; assay type: ADME, organism-based; parameters: dose 100 mg/kg, route oral; conditions: in vivo
[14] = Drug level in human HT-29 cells expressing B-Raf V600E mutant xenografted nude mouse tumor at 100 mg/kg, po after 8 hrs; assay type: ADME, organism-based, Neoplasm; parameters: dose 100 mg/kg, route oral; conditions: read-out: Drug uptake
[15] = system: Mus musculus; assay: Average drug concentration in human HT-29 cells expressing B-Raf V600E mutant xenografted nude mouse plasma at 100 mg/kg, po bid; assay type: ADME, organism-based; parameters: dose 100 mg/kg, route oral; conditions: in vivo
[16] = Drug level in human LOX cells expressing B-Raf V600E mutant xenografted nude mouse tumor at 100 mg/kg, po after 12 hrs; assay type: ADME, organism-based, Neoplasm; parameters: dose 100 mg/kg, route oral; conditions: read-out: Drug uptake
[17] = AUC (0 to 24 hrs) in human MIAPaCa2 cells expressing K-Ras G12C mutant xenografted nude mouse at 200 mg/kg, po qd; assay type: ADME, organism-based, MIA PaCa-2; parameters: time < 24 hr, dose 200 mg/kg, route oral; conditions: in vivo
[18] = Cmax in human H460 cells expressing K-Ras Q61H mutant xenografted nude mouse at 50 mg/kg, po bid; assay type: ADME, organism-based; parameters: dose 50 mg/kg, route oral; conditions: in vivo
[19] = Plasma concentration in human HT-29 cells expressing B-Raf V600E mutant xenografted nude mouse at 100 mg/kg, po after 12 hrs; assay type: ADME, organism-based; parameters: dose 100 mg/kg, route oral
[20] = system: HT-29; assay: Antitumor activity against human HT-29 cells expressing B-Raf V600E mutant xenografted in nude mouse assessed as tumor growth inhibition at 100 mg/kg, po bid; assay type: functional; conditions: read-out: GI
[21] = system: Mus musculus; assay: Inhibition of MEK-mediated ERK phosphorylation in tumor of human HT-29 cells expressing B-Raf V600E mutant xenografted nude mouse at 50 mg/kg, po after 8 hrs by Western blot analysis relative to control; assay type: functional; conditions: HT-29, 8 h
[22] = Plasma concentration in human HT-29 cells expressing B-Raf V600E mutant xenografted nude mouse at 50 mg/kg, po after 8 hrs; assay type: ADME, organism-based; parameters: dose 50 mg/kg, route oral
[23] = system: NCI-H460; assay: Antitumor activity against human H460 cells expressing K-Ras Q61H mutant xenografted in nude mouse assessed as tumor growth inhibition at 100 mg/kg, po bid; assay type: functional; conditions: read-out: GI
[24] = system: HT-29; assay: Induction of apoptosis in human HT-29 cells; assay type: functional, cell-based
[25] = AUC (0 to 12 hrs) in human HT-29 cells expressing B-Raf V600E mutant xenografted nude mouse at 100 mg/kg, po bid; assay type: ADME, organism-based; parameters: time < 12 hr, dose 100 mg/kg, route oral; conditions: in vivo
[26] = system: Mus musculus; assay: Toxicity in human H460 cells expressing K-Ras Q61H mutant xenografted nude mouse assessed as gross signs of adverse effect at 25 to 200 mg/kg, po bid for 3 weeks; assay type: organism-based; parameters: dose 25-200 mg/kg, route oral; conditions: in vivo, 504 h
[27] = system: MIA PaCa-2; assay: Antitumor activity against human MIAPaCa2 cells expressing K-Ras G12C mutant xenografted in nude mouse assessed as tumor growth inhibition at 200 mg/kg, po bid; assay type: functional; conditions: read-out: GI
[28] = system: NCI-H460; assay: Growth inhibition of human […] mutant by MTT assay; assay type: functional, cell-based
[29] = target: T1, Dual specificity mitogen-activated protein kinase kinase 1 (Homo sapiens, UniProt Q02750); assay: Inhibition of MEK1 in human H460 cells assessed as inhibition of ERK phosphorylation by Western blot analysis; assay type: cell-based
T1 sequence (Q02750 whole entry): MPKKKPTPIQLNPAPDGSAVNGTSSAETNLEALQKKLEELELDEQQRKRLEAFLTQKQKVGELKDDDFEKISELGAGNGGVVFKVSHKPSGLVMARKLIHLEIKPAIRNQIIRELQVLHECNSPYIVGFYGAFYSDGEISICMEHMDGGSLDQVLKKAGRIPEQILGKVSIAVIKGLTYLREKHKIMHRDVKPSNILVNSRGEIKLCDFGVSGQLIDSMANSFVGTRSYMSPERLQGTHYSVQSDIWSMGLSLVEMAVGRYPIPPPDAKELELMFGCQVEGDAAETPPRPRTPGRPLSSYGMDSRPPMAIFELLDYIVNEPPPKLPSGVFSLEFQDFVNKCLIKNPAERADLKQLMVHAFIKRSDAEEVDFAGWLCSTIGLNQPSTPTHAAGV

[30] = target: T1, Dual specificity mitogen-activated protein kinase kinase 1; assay: Inhibition of MEK1
[31] = system: Mus musculus; assay: Average drug concentration in human MIAPaCa2 cells expressing K-Ras G12C mutant xenografted nude mouse plasma at 50 mg/kg, po bid; assay type: ADME, organism-based, MIA PaCa-2; parameters: dose 50 mg/kg, route oral; conditions: in vivo
[32] = Cmax in human MIAPaCa2 cells expressing K-Ras G12C mutant xenografted nude mouse at 100 mg/kg, po bid; assay type: ADME, organism-based, MIA PaCa-2; parameters: dose 100 mg/kg, route oral; conditions: in vivo
[33] = Drug level in human HT-29 cells expressing B-Raf V600E mutant xenografted nude mouse tumor at 50 mg/kg, po after 8 hrs; assay type: ADME, organism-based, Neoplasm; parameters: dose 50 mg/kg, route oral; conditions: read-out: Drug uptake
[34] = system: Mus musculus; assay: Inhibition of MEK-mediated ERK phosphorylation in tumor of human HT-29 cells expressing B-Raf V600E mutant xenografted nude mouse at 50 mg/kg, po after 12 hrs by Western blot analysis relative to control; assay type: functional; conditions: HT-29, 12 h
[35] = Plasma concentration in human HT-29 cells expressing B-Raf V600E mutant xenografted nude mouse at 50 mg/kg, po after 12 hrs; assay type: ADME, organism-based; parameters: dose 50 mg/kg, route oral
[36] = system: NCI-H460; assay: Antitumor activity against human H460 cells expressing K-Ras Q61H mutant xenografted in nude mouse assessed as tumor growth inhibition at 50 mg/kg, po bid; assay type: functional; conditions: read-out: GI
[37] = Plasma concentration in human LOX cells expressing B-Raf V600E mutant xenografted nude mouse at 100 mg/kg, po after 4 hrs; assay type: ADME, organism-based; parameters: dose 100 mg/kg, route oral
[38] = Cmax in human MIAPaCa2 cells expressing K-Ras G12C mutant xenografted nude mouse at 50 mg/kg, po bid; assay type: ADME, organism-based, MIA PaCa-2; parameters: dose 50 mg/kg, route oral; conditions: in vivo
[39] = system: NCI-H460; assay: Antitumor activity against human H460 cells expressing K-Ras Q61H mutant xenografted in nude mouse assessed as tumor growth inhibition at 500 mg/kg, po administered weekly once; assay type: functional; conditions: read-out: GI
[40] = target: Dual specificity mitogen-activated protein kinase kinase; MEK1/2 (Homo sapiens) (UniProt P36507+Q02750); conditions: LOX, 2 to 10 uM
Sequence of Dual specificity mitogen-activated protein kinase kinase; MEK1/2 (Homo sapiens) (P36507 whole entry, looked up): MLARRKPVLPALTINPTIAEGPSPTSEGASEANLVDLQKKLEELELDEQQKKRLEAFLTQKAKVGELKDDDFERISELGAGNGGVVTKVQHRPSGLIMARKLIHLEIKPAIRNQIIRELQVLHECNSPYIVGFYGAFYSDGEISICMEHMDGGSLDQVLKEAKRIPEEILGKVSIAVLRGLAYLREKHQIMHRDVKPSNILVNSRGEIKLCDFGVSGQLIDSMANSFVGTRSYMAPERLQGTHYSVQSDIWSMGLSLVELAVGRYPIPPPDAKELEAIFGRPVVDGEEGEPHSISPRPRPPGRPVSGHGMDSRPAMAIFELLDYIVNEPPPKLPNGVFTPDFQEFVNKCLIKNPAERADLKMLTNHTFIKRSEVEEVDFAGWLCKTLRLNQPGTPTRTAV
Sequence of Dual specificity mitogen-activated protein kinase kinase; MEK1/2 (Homo sapiens) (Q02750 whole entry, looked up): as the sequence (Q02750 whole entry) above
Description: Inhibition of MEK1/2 in human LOX cells assessed as inhibition of ERK1/2 phosphorylation at 2 to 10 uM by Western blot analysis

In the case of `C[C@@H](c1ccccc1)[C@@H](C(=O)Nc1ccc(I)cc1F)N1C(=O)N[C@H](c2ccc(OC[C@H](O)CO)cc2)C1=O`, the inhibition in vivo at 100 mg/kg [1] is reported as 77%, the concentration at 12 h [2] is reported as 321 ng/g and the AUC at 12 h [3] is reported as 18800 ng·h/mL. The Cmax [4] was 20700 ng/mL, the Cave [5] was 5083 ng/mL and the AUC at 24 h [6] was 122 µg·h/mL. For the same molecule, the Activity [7] was “Active”, the Cmax [8] was 2750 ng/mL and the EC50 [9] was 3.35 µM. The inhibition in vivo at 100 mg/kg [10] was greater than 100%, the Activity [11] was “Non-toxic” and the Cave [12] was 315 ng/mL. For the same molecule, the Cave [13] was 5242 ng/mL, the concentration at 8 h [14] was 293 ng/g and the Cave [15] was 1530 ng/mL. The concentration at 12 h [16] was 318 ng/g, the AUC at 24 h [17] was 66200 ng·h/mL and the Cmax [18] was 8080 ng/mL. It also gave a concentration at 12 h [19] of 195 ng/mL, an inhibition in vivo at 100 mg/kg [20] of 95% and an inhibition in vivo at 50 mg/kg [21] of 12%. For the same molecule, the concentration at 8 h [22] was 1260 ng/mL, the inhibition in vivo at 100 mg/kg [23] was 90% and the Activity [24] was “Active”. For the same molecule, the AUC at 12 h [25] was 18400 ng·h/mL, the Activity [26] was “Non-toxic” and the inhibition in vivo at 200 mg/kg [27] was 97%. It also gave an IC50 [28] of 300 nM, an IC90 [28] of 3.08 µM and an IC50 [29] of 82 nM. It also gave an IC50 [30] of 25 nM, a Cave [31] of 1567 ng/mL and a Cmax [32] of 9650 ng/mL. The concentration at 8 h [33] was 906 ng/g, the inhibition in vivo at 50 mg/kg [34] was 0% and the concentration at 12 h [35] was 61 ng/mL. The inhibition in vivo at 50 mg/kg [36] was 83%, the concentration at 4 h [37] was 4140 ng/mL and the Cmax [38] was 5240 ng/mL. For the same molecule, the inhibition in vivo at 500 mg/kg [39] was 48% and the inhibition [40] was “Active”.
